According to ChEMBL document CHEMBL1139768, “The discovery of potent, selective, and orally bioavailable hNK1 antagonists derived from pyrrolidine” (Bioorg Med Chem Lett, 2007):

Assays:
[1] = test system: Gerbillinae; assay: Inhibition of GR-73632-induced foot tapping in gerbils at 3 mg/kg, iv after 24 hrs; format: functional; conditions: for Inhibition: 3 mg/kg; for inhibition in vivo at 3 mg/kg: Gerbillinae, iv, 24 h
[2] = target: T1, Substance-P receptor (Homo sapiens, UniProt P25103); assay: Displacement of [125I]-SP from human NK1 receptor expressed in CHO cells
[3] = test system: Gerbillinae; assay: Inhibition of GR-73632-induced foot tapping in gerbils at 6 mg/kg, iv after 24 hrs; format: functional
[4] = test system: Gerbillinae; assay: Inhibition of GR-73632-induced foot tapping in iv dosed gerbils after 24 hrs; format: functional; conditions: Gerbillinae, iv, 24 h; read-out: ID50 (the source's name)
[5] = test system: Gerbillinae; assay: Inhibition of GR-73632-induced foot tapping in gerbils at 3 mg/kg, iv; format: functional
[6] = test system: Gerbillinae; assay: Inhibition of GR-73632-induced foot tapping in iv dosed gerbils; format: functional; conditions: for ED50: Gerbillinae, iv, read-out: ID50 (the source's name)
[7] = test system: Gerbillinae; assay: Inhibition of GR-73632-induced foot tapping in gerbils at 1 mg/kg, iv; format: functional
[8] = target: T1, Substance-P receptor; assay: Displacement of [125I]-SP from human NK1 receptor expressed in CHO cells at 100 nM
[9] = test system: Gerbillinae; assay: Inhibition of GR-73632-induced foot tapping in gerbils at 2 mg/kg, iv; format: functional

T1 sequence (P25103 whole entry): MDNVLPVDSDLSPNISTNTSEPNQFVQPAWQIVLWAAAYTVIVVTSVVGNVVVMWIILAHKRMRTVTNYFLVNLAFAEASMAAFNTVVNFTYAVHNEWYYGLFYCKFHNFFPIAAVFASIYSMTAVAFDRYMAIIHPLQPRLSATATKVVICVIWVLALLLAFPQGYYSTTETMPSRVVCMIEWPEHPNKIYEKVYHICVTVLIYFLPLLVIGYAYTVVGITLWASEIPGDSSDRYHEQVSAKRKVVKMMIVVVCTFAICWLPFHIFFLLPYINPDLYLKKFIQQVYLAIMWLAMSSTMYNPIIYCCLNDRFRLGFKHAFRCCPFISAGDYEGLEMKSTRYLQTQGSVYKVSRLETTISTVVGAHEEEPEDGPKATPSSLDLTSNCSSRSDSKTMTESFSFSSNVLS

IC50 [2] [nM]	Compound	inhibition in vivo at 3 mg/kg [1] [%]	inhibition in vivo at 6 mg/kg [3] [%]	further results
0.16	CC1CC(N2C[C@@H](O[C@H](C)c3cc(C(F)(F)F)cc(C(F)(F)F)c3)[C@H](c3ccc(F)cc3)C2)=CC1=O (single isomer, unassigned; diastereomer A)			Inhibition [1]: 85%
0.12	C[C@@H](O[C@@H]1CN(C2=CC(=O)N(C)C2)C[C@H]1c1ccc(F)cc1)c1cc(C(F)(F)F)cc(C(F)(F)F)c1	8		
0.07	CC(=O)N1C[C@@H](O[C@H](C)c2cc(C(F)(F)F)cc(C(F)(F)F)c2)[C@H](c2ccc(F)cc2)C1		26	
0.09	CCC(=O)N1C[C@@H](O[C@H](C)c2cc(C(F)(F)F)cc(C(F)(F)F)c2)[C@H](c2ccc(F)cc2)C1		0	
0.22	C[C@@H](O[C@@H]1CN(C2=CC(=O)C(O)C2)C[C@H]1c1ccc(F)cc1)c1cc(C(F)(F)F)cc(C(F)(F)F)c1 (single isomer, unassigned; diastereomer A)			ED50 [4]: 0.7 mg/kg; inhibition in vivo at 3 mg/kg [5]: 100%; Inhibition [1]: 100%; ID50 [6]: 0.5 mg/kg
0.12	C[C@@H](O[C@@H]1CN(C(=O)[C@@H]2CCC(=O)N2C)C[C@H]1c1ccc(F)cc1)c1cc(C(F)(F)F)cc(C(F)(F)F)c1	100		ED50 [4]: 1.2 mg/kg; ED50 [6]: 0.6 mg/kg
0.34	C[C@@H](O[C@@H]1CN(C(=O)[C@@H]2COC(=O)N2)C[C@H]1c1ccc(F)cc1)c1cc(C(F)(F)F)cc(C(F)(F)F)c1	13		
0.11	CC1CC(=O)C=C1N1C[C@@H](O[C@H](C)c2cc(C(F)(F)F)cc(C(F)(F)F)c2)[C@H](c2ccc(F)cc2)C1 (mixture of isomers)	79		
0.16	C[C@@H](O[C@@H]1CN(C(=O)N2CCOCC2)C[C@H]1c1ccccc1)c1cc(C(F)(F)F)cc(C(F)(F)F)c1			inhibition in vivo at 1 mg/kg [7]: 40%
0.16	C[C@@H](O[C@@H]1CN(C2=CC(=O)OC2)C[C@H]1c1ccc(F)cc1)c1cc(C(F)(F)F)cc(C(F)(F)F)c1	67		
	CC(=O)N1C[C@@H](O[C@@H](C)c2cc(C(F)(F)F)cc(C(F)(F)F)c2)[C@H](c2ccccc2)C1			inhibition [8]: 18%
0.1	CCNC(=O)N1C[C@@H](O[C@H](C)c2cc(C(F)(F)F)cc(C(F)(F)F)c2)[C@H](c2ccc(F)cc2)C1		93	ED50 [4]: 1 mg/kg; inhibition in vivo at 1 mg/kg [7]: 61%
0.18	C[C@@H](O[C@@H]1CN(C2=CC(=O)C(C)(C)CC2)C[C@H]1c1ccccc1)c1cc(C(F)(F)F)cc(C(F)(F)F)c1	12		
0.14	C[C@@H](O[C@@H]1CN(C(=O)NC(C)(C)C)C[C@H]1c1ccc(F)cc1)c1cc(C(F)(F)F)cc(C(F)(F)F)c1		6	inhibition in vivo at 1 mg/kg [7]: 28%
0.3	CC(=O)N1CCN(C(=O)N2C[C@@H](O[C@H](C)c3cc(C(F)(F)F)cc(C(F)(F)F)c3)[C@H](c3ccc(F)cc3)C2)CC1	57		
0.11	CNC(=O)N1C[C@@H](O[C@H](C)c2cc(C(F)(F)F)cc(C(F)(F)F)c2)[C@H](c2ccc(F)cc2)C1		77	ED50 [4]: 3 mg/kg; inhibition in vivo at 2 mg/kg [9]: 100%; ED50 [6]: 1 mg/kg
